Test results taken from patent US10202361B2, “Pyridazinones as herbicides” (E I DU PONT DE NEMOURS AND COMPANY, priority 2014, dated 2019).
Where two headings read alike, the source gives them in different places.

How the values were obtained:
Assay type in all cases: in vivo
[1] = test system: wheat (winter wheat, Triticum aestivum); assay: Test C pre-/postemergence greenhouse herbicide test; conditions: Triticum aestivum, Wheat, read-out: Plant response rating; for plant injury at 31 g/ha: 31 g ai/ha; for plant injury at 62 g/ha: 62 g ai/ha; for plant injury at 125 g/ha: 125 g ai/ha; for plant injury at 250 g/ha: 250 g ai/ha
Method in brief: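 Seeds sown in loam soil–sand blend were treated preemergence; plants at 2 to 18 cm (1- to 4-leaf stage) in peat-based medium were treated postemergence. Test chemicals were formulated in a non-phytotoxic solvent mixture with surfactant. After 13 to 15 d in greenhouse, injury was rated visually versus controls, 0 (no effect) to 100 (complete control).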

[2] = test system: crabgrass, Large (large crabgrass, Digitaria sanguinalis); assay: Test A pre-/postemergence greenhouse herbicide test; conditions: Digitaria sanguinalis, 240 h, 0 to 100 scale (0 no effect, 100 complete control), approx. 10 d, read-out: Plant response rating, Crabgrass, Large; for pest or weed control at 125 g/ha: 125 g ai/ha; for pest or weed control at 500 g/ha: 500 g ai/ha
Method in brief: (§1)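 Injury was scored visually on a 0–100 scale (100 = complete control) about 10 d after spraying, relative to untreated plants. Compounds were formulated in solvent plus surfactant and applied as soil spray preemergence or to 2–10 cm, one- to two-leaf seedlings postemergence.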

[3] = test system: foxtail, giant (giant foxtail, Setaria faberii); assay: as above; conditions: Setaria faberi, 240 h, 0 to 100 scale (0 no effect, 100 complete control), approx. 10 d, read-out: Plant response rating, Foxtail, Giant; for pest or weed control at 125 g/ha: 125 g ai/ha; for pest or weed control at 500 g/ha: 500 g ai/ha
Method in brief: as §1

[4] = test system: pigweed (Amaranthus retroflexus); assay: as above; conditions: Amaranthus retroflexus, 240 h, 0 to 100 scale (0 no effect, 100 complete control), approx. 10 d, read-out: Plant response rating, Pigweed; for pest or weed control at 125 g/ha: 125 g ai/ha; for pest or weed control at 500 g/ha: 500 g ai/ha
Method in brief: as §1

[5] = test system: corn (Zea mays); assay: as above; conditions: Zea mays, 240 h, 0 to 100 scale (0 no effect, 100 complete control), approx. 10 d; for Corn plant response rating (crop injury, 0 = no effect, 100 = complete kill) at 125 g/ha: 125 g ai/ha; for Corn plant response rating (crop injury, 0 = no effect, 100 = complete kill) at 500 g/ha: 500 g ai/ha
Method in brief: as §1

[6] = test system: velvetleaf (Abutilon theophrasti); assay: as above; conditions: Abutilon theophrasti, 240 h, 0 to 100 scale (0 no effect, 100 complete control), approx. 10 d, read-out: Plant response rating, Velvetleaf; for pest or weed control at 125 g/ha: 125 g ai/ha; for pest or weed control at 500 g/ha: 500 g ai/ha
Method in brief: as §1

[7] = test system: wheat (Triticum aestivum); assay: as above; conditions: Triticum aestivum, 240 h, 0 to 100 scale (0 no effect, 100 complete control), approx. 10 d, read-out: Plant response rating, Wheat; for plant injury at 125 g/ha: 125 g ai/ha; for plant injury at 500 g/ha: 500 g ai/ha
Method in brief: as §1

[8] = test system: barnyardgrass (Echinochloa crus-galli); assay: as above; conditions: Echinochloa crus-galli, 240 h, 0 to 100 scale (0 no effect, 100 complete control), approx. 10 d, read-out: Plant response rating, Barnyardgrass; for pest or weed control at 125 g/ha: 125 g ai/ha; for pest or weed control at 500 g/ha: 500 g ai/ha
Method in brief: as §1

[9] = test system: morningglory (Ipomoea spp.); assay: as above; conditions: Ipomoea, 240 h, 0 to 100 scale (0 no effect, 100 complete control), approx. 10 d, read-out: Plant response rating, Morningglory; for pest or weed control at 125 g/ha: 125 g ai/ha; for pest or weed control at 500 g/ha: 500 g ai/ha
Method in brief: as §1

Cc1cc(=O)n(-c2ccc(C(F)(F)F)cc2)nc1Cc1ccnc(C(F)(F)F)c1 [Compound 2, 5-methyl-2-[4-(trifluoromethyl)phenyl]-6-[[2-(trifluoromethyl)-4-pyridinyl]methyl]-3(2H)-pyridazinone] showed a plant injury at 31 g/ha ([1]; post-emergence, Postemergence) of 5%, a plant injury at 62 g/ha ([1]; post-emergence, Postemergence) of 5% and a plant injury at 125 g/ha ([1]; post-emergence, Postemergence) of 5%. For the same compound, the plant injury at 250 g/ha ([1]; post-emergence, Postemergence) was 5%, the plant injury at 62 g/ha ([1]; pre-emergence, Preemergence) was 0% and the plant injury at 125 g/ha ([1]; pre-emergence, Preemergence) was 10%. The plant injury at 250 g/ha ([1]; pre-emergence, Preemergence) was 30%, the pest or weed control at 125 g/ha ([2]; post-emergence, Postemergence) was 80% and the pest or weed control at 500 g/ha ([2]; post-emergence, Postemergence) was 100%. For the same compound, the pest or weed control at 125 g/ha ([2]; pre-emergence, Preemergence) was 100%, the pest or weed control at 500 g/ha ([2]; pre-emergence, Preemergence) was 100% and the pest or weed control at 125 g/ha ([3]; post-emergence, Postemergence) was 80%. The pest or weed control at 500 g/ha ([3]; post-emergence, Postemergence) was 100%, the pest or weed control at 125 g/ha ([3]; pre-emergence, Preemergence) was 100% and the pest or weed control at 500 g/ha ([3]; pre-emergence, Preemergence) was 100%. The pest or weed control at 125 g/ha ([4]; post-emergence, Postemergence) was 90%, the pest or weed control at 500 g/ha ([4]; post-emergence, Postemergence) was 100% and the pest or weed control at 125 g/ha ([4]; pre-emergence, Preemergence) was 100%. For the same compound, the pest or weed control at 500 g/ha ([4]; pre-emergence, Preemergence) was 100%, the Corn plant response rating (crop injury, 0 = no effect, 100 = complete kill) at 125 g/ha ([5]; post-emergence, Postemergence) was 70% and the Corn plant response rating (crop injury, 0 = no effect, 100 = complete kill) at 500 g/ha ([5]; post-emergence, Postemergence) was 90%. It also gave a Corn plant response rating (crop injury, 0 = no effect, 100 = complete kill) at 125 g/ha ([5]; pre-emergence, Preemergence) of 30%, a Corn plant response rating (crop injury, 0 = no effect, 100 = complete kill) at 500 g/ha ([5]; pre-emergence, Preemergence) of 50% and a pest or weed control at 125 g/ha ([6]; post-emergence, Postemergence) of 50%. It also gave a pest or weed control at 500 g/ha ([6]; post-emergence, Postemergence) of 100%, a pest or weed control at 125 g/ha ([6]; pre-emergence, Preemergence) of 20% and a pest or weed control at 500 g/ha ([6]; pre-emergence, Preemergence) of 50%. The plant injury at 125 g/ha ([7]; post-emergence, Postemergence) was 40%, the plant injury at 500 g/ha ([7]; post-emergence, Postemergence) was 80% and the plant injury at 125 g/ha ([7]; pre-emergence, Preemergence) was 0%. For the same compound, the plant injury at 500 g/ha ([7]; pre-emergence, Preemergence) was 40%, the pest or weed control at 125 g/ha ([8]; post-emergence, Postemergence) was 80% and the pest or weed control at 500 g/ha ([8]; post-emergence, Postemergence) was 90%. The pest or weed control at 125 g/ha ([8]; pre-emergence, Preemergence) was 80% and the pest or weed control at 500 g/ha ([8]; pre-emergence, Preemergence) was 100%.
Cc1cc(Oc2ccnc(C(F)(F)F)c2)nn(-c2ccc(C(F)(F)F)cc2)c1=O [Compound 6, 4-methyl-2-[4-(trifluoromethyl)phenyl]-6-[[2-(trifluoromethyl)-4-pyridinyl]oxy]-3(2H)-pyridazinone] showed a plant injury at 31 g/ha ([1]; post-emergence, Postemergence) of 10%, a plant injury at 62 g/ha ([1]; post-emergence, Postemergence) of 10% and a plant injury at 125 g/ha ([1]; post-emergence, Postemergence) of 15%. It also gave a plant injury at 250 g/ha ([1]; post-emergence, Postemergence) of 25%, a pest or weed control at 125 g/ha ([2]; post-emergence, Postemergence) of 80% and a pest or weed control at 500 g/ha ([2]; post-emergence, Postemergence) of 90%. For the same compound, the pest or weed control at 125 g/ha ([2]; pre-emergence, Preemergence) was 100%, the pest or weed control at 500 g/ha ([2]; pre-emergence, Preemergence) was 100% and the pest or weed control at 125 g/ha ([3]; post-emergence, Postemergence) was 80%. The pest or weed control at 500 g/ha ([3]; post-emergence, Postemergence) was 100%, the pest or weed control at 125 g/ha ([3]; pre-emergence, Preemergence) was 100% and the pest or weed control at 500 g/ha ([3]; pre-emergence, Preemergence) was 100%. For the same compound, the pest or weed control at 125 g/ha ([4]; post-emergence, Postemergence) was 100%, the pest or weed control at 500 g/ha ([4]; post-emergence, Postemergence) was 100% and the pest or weed control at 125 g/ha ([4]; pre-emergence, Preemergence) was 100%. It also gave a pest or weed control at 500 g/ha ([4]; pre-emergence, Preemergence) of 100%, a Corn plant response rating (crop injury, 0 = no effect, 100 = complete kill) at 125 g/ha ([5]; post-emergence, Postemergence) of 40% and a Corn plant response rating (crop injury, 0 = no effect, 100 = complete kill) at 500 g/ha ([5]; post-emergence, Postemergence) of 50%. It also gave a Corn plant response rating (crop injury, 0 = no effect, 100 = complete kill) at 125 g/ha ([5]; pre-emergence, Preemergence) of 10%, a Corn plant response rating (crop injury, 0 = no effect, 100 = complete kill) at 500 g/ha ([5]; pre-emergence, Preemergence) of 20% and a pest or weed control at 125 g/ha ([6]; post-emergence, Postemergence) of 100%. It also gave a pest or weed control at 500 g/ha ([6]; post-emergence, Postemergence) of 100%, a pest or weed control at 125 g/ha ([6]; pre-emergence, Preemergence) of 70% and a pest or weed control at 500 g/ha ([6]; pre-emergence, Preemergence) of 80%. For the same compound, the pest or weed control at 125 g/ha ([9]; post-emergence, Postemergence) was 80%, the pest or weed control at 500 g/ha ([9]; post-emergence, Postemergence) was 100% and the pest or weed control at 125 g/ha ([9]; pre-emergence, Preemergence) was 80%. The pest or weed control at 500 g/ha ([9]; pre-emergence, Preemergence) was 90%, the plant injury at 125 g/ha ([7]; post-emergence, Postemergence) was 40% and the plant injury at 500 g/ha ([7]; post-emergence, Postemergence) was 50%. For the same compound, the plant injury at 125 g/ha ([7]; pre-emergence, Preemergence) was 10%, the plant injury at 500 g/ha ([7]; pre-emergence, Preemergence) was 30% and the pest or weed control at 125 g/ha ([8]; post-emergence, Postemergence) was 50%. For the same compound, the pest or weed control at 500 g/ha ([8]; post-emergence, Postemergence) was 90%, the pest or weed control at 125 g/ha ([8]; pre-emergence, Preemergence) was 40% and the pest or weed control at 500 g/ha ([8]; pre-emergence, Preemergence) was 80%.
